Measured values: patent US10800789B2, “Antiviral compounds” (Gilead Pharmasset LLC, priority 2012, dated 2020)
Read-outs that look alike come from different tables or passages of the source.

Columns and labels:
[1] = system: NS5A chimeric genotype 2a JFH-1 replicon with genotype 2a J6 strain NS5A gene (M31 present); assay: Replicon assay, genotype 2a J6 NS5A chimera; assay type: cell-based, HCV
Procedure, shortened: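 EC50 was fitted by non-linear regression to Renilla luciferase signal after 72 h of exposure to 3-fold serially diluted compound (10 mM DMSO stocks). Controls were DMSO (none) and ITMN-191 above 100×EC50 (full). Chimeric 2a replicons were used either stable or transiently transfected into Huh-Lunet cells.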

[2] = system: NS5A chimeric genotype 2a JFH-1 replicon with genotype 2b MD2b-1 strain NS5A gene (M31 present); assay: Replicon assay, genotype 2b NS5A chimera; assay type: cell-based, HCV
Procedure, shortened: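 Cells carrying the stable or transiently transfected (Huh-Lunet) dicistronic RLuc replicons received 3-fold serial compound dilutions from 10 mM DMSO stocks. After 72 h, cells were lysed and Renilla luciferase read. DMSO served as the no-inhibition control and ITMN-191 above 100×EC50 as the positive control; EC50 by non-linear regression.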

[3] = system: stable HCV 2a JFH-1 Rluc replicon cells (L31 present in NS5A); assay: Renilla luciferase HCV replicon reporter assay, genotype 2a JFH-1; assay type: cell-based
Procedure, shortened: (§1)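 Antiviral EC50 was determined in HCV replicon cells (stable RLuc lines for 1a H77, 1b Con1, 2a JFH-1 with NS5A L31; J6 NS5A chimera with M31) treated 72 h with compound. Renilla luciferase was then quantified.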

[4] = system: stable HCV 1a RLuc replicon cells (dicistronic genotype 1a H77 replicon); assay: Renilla luciferase HCV replicon reporter assay, genotype 1a; assay type: cell-based; details: stable 1a H77 RLuc replicon cells
Procedure, shortened: as §1

[5] = system: NS5A chimeric genotype 1b Con1 replicon with genotype 4a ED43 strain NS5A gene; assay: Replicon assay, genotype 4a NS5A chimera; assay type: cell-based, HCV
[6] = system: NS5A chimeric genotype 1b Con1 replicon with genotype 3a S52 strain NS5A gene; assay: Replicon assay, genotype 3a NS5A chimera; assay type: cell-based, HCV
[7] = system: stable HCV 1b RLuc replicon cells (dicistronic genotype 1b Con1 replicon); assay: Renilla luciferase HCV replicon reporter assay, genotype 1b; assay type: cell-based; details: stable 1b Con1 RLuc replicon cells, 72 hours, read-out: 1b
Procedure, shortened: as §1

[8] = Hepatitis C virus, read-out: 2b (t) (nM), genotype 2b MD2b-1 NS5A chimeric replicon (M31), transiently transfected (t)
[9] = Hepatitis C virus, read-out: 2b (t), transiently transfected (t) into Huh-Lunet cells, activity range
[10] = Hepatitis C virus, read-out: 2a J6 (t) (nM), genotype 2a J6 NS5A chimeric replicon (M31), transiently transfected (t) into Huh-Lunet cells
[11] = Hepatitis C virus, read-out: 2a J6 (t), transiently transfected (t) into Huh-Lunet cells, activity range
[12] = Hepatitis C virus, 2BS, read-out: 2b (s), stably replicating replicon cells (s), activity range
[13] = Hepatitis C virus, read-out: 2b (s) (nM), genotype 2b MD2b-1 NS5A chimeric replicon (M31), stably replicating replicon cells (s)
[14] = Hepatitis C virus, read-out: 2a JFH (nM), genotype 2a JFH-1 replicon (L31 in NS5A), stable cells
[15] = Hepatitis C virus, read-out: 2a JFH, stable 2a JFH-1 Rluc replicon cells, L31 in NS5A, activity range
[16] = Hepatitis C virus, 72 h, activity range
[17] = Hepatitis C virus, read-out: 4a (s) (nM), genotype 4a NS5A chimeric replicon, stable replicon cells (s)
[18] = Hepatitis C virus, read-out: 4a (s), (s), activity range
[19] = Hepatitis C virus, read-out: 3a (s) (nM), genotype 3a NS5A chimeric replicon, stable replicon cells (s)
[20] = Hepatitis C virus, read-out: 3a (s), (s), activity range

SMILES | EC50 [2, 8] | EC50 [2, 9] | EC50 [1, 10] | EC50 [1, 11] | EC50 [2, 12] | EC50 [2, 13] | EC50 [3, 14] | EC50 [3, 15] | EC50 ([4]; Hepatitis C virus, 72 h) | EC50 [4, 16] | EC50 [5, 17] | EC50 [5, 18] | EC50 [6, 19] | EC50 [6, 20] | EC50 ([7]; Hepatitis C virus, 72 h) | further results
COC[C@H]1C[C@@H](c2nc(C3CC3)c(-c3ccc4c(c3)COc3cc5c(ccc6nc([C@@H]7CC[C@H](C)N7C(=O)[C@@H](NC(=O)OC)C(C)C)[nH]c65)cc3-4)[nH]2)N(C(=O)[C@H](NC(=O)OC)c2ccccc2)C1 [FV, Methyl {(1R)-2-[(2S,4S)-2-(4-cyclopropyl-5-{2-[(2S,5S)-1-{(2S)-2-[(methoxycarbonyl)amino]-3-methylbutanoyl}-5-methylpyrrolidin-2-yl]-1,11-dihydroisochromeno[4′,3′:6,7]naphtho[1,2-d]imidazol-9-yl}-1H-imidazol-2-yl)-4-(methoxymethyl)pyrrolidin-1-yl]-2-oxo-1-phenylethyl}carbamate] | 0.772 nM | 0.1 to 0.999 nM | – | – | – | – | – | – | – | – | – | – | – | – | – | EC50 ([1]; read-out: 2a J6 (t), genotype 2a J6 NS5A chimeric replicon (M31), transiently transfected (t) into Huh-Lunet cells): 3.78 nM; EC50 ([1]; read-out: 2a J6 (t), transiently transfected (t) into Huh-Lunet cells, activity range): 1 to 44 nM; EC50 ([2]; read-out: 2b (s), genotype 2b MD2b-1 NS5A chimeric replicon (M31), stably replicating replicon cells (s)): 2.55 nM; EC50 ([2]; read-out: 2b (s), stably replicating replicon cells (s), activity range): 1 to 44 nM; EC50 ([3]; read-out: 2a JFH, genotype 2a JFH-1 replicon (L31 in NS5A), stable cells): 0.111 nM; EC50 ([3]; read-out: 2a JFH, stable 2a JFH-1 Rluc replicon cells, L31 in NS5A, activity range): 0.1 to 0.999 nM; EC50 ([4]; 72 hours): 0.023 nM; EC50 ([4]; 72 hours, activity range): < 0.1 nM; EC50 ([5]; read-out: 4a (s), (s), activity range): < 0.1 nM; EC50 ([5]; read-out: 4a (s), genotype 4a NS5A chimeric replicon, stable replicon cells (s)): 0.029 nM; EC50 ([6]; read-out: 3a (s), (s), activity range): 1 to 44 nM; EC50 ([6]; read-out: 3a (s), genotype 3a NS5A chimeric replicon, stable replicon cells (s)): 5.25 nM; EC50 [7]: 0.036 nM
COC[C@H]1C[C@@H](c2ncc(-c3ccc4c(c3)COc3cc5c(ccc6nc([C@@H]7C[C@H](C)CN7C(=O)[C@@H](NC(=O)OC)[C@@H](C)OC)[nH]c65)cc3-4)[nH]2)N(C(=O)[C@@H](NC(=O)OC)[C@@H](C)OC)C1 [FW, Methyl {(2S,3R)-3-methoxy-1-[(2S,4S)-2-(9-{2-[(2S,4S)-1-[N-(methoxycarbonyl)-O-methyl-L-threonyl]-4-(methoxymethyl)pyrrolidin-2-yl]-1H-imidazol-5-yl}-1,11-dihydroisochromeno[4′,3′:6,7]naphtho[1,2-d]imidazol-2-yl)-4-methylpyrrolidin-1-yl]-1-oxobutan-2-yl}carbamate] | 0.399 nM | 0.1 to 0.999 nM | 0.104 nM | 0.1 to 0.999 nM | 0.1 to 0.999 nM | 0.773 nM | 0.054 nM | < 0.1 nM | 0.121 nM | 0.1 to 0.999 nM | 0.08 nM | < 0.1 nM | 1.17 nM | 1 to 44 nM | 0.187 nM | –
COC[C@H]1C[C@@H](c2ncc(-c3ccc4c(c3)COc3cc5c(ccc6nc([C@@H]7CC[C@H](C)N7C(=O)[C@@H](NC(=O)OC)[C@@H](C)OC)[nH]c65)cc3-4)[nH]2)N(C(=O)[C@@H](NC(=O)OC)[C@@H](C)OC)C1 [FX, Methyl {(2S,3R)-3-methoxy-1-[(2S,5S)-2-(9-{2-[(2S,4S)-1-[N-(methoxycarbonyl)-O-methyl-L-threonyl]-4-(methoxymethyl)pyrrolidin-2-yl]-1H-imidazol-5-yl}-1,11-dihydroisochromeno[4′,3′:6,7]naphtho[1,2-d]imidazol-2-yl)-5-methylpyrrolidin-1-yl]-1-oxobutan-2-yl}carbamate] | 0.122 nM | 0.1 to 0.999 nM | 0.064 nM | < 0.1 nM | 0.1 to 0.999 nM | 0.288 nM | 0.024 nM | < 0.1 nM | 0.041 nM | < 0.1 nM | 0.031 nM | < 0.1 nM | 0.243 nM | 0.1 to 0.999 nM | 0.06 nM | –
COC(=O)N[C@H](C(=O)N1[C@@H](C)CC[C@H]1c1nc(C2CC2)c(-c2ccc3c(c2)COc2cc4c(ccc5nc([C@@H]6CC[C@H](C)N6C(=O)[C@@H](NC(=O)OC)[C@@H](C)OC)[nH]c54)cc2-3)[nH]1)[C@@H](C)OC [GC, Methyl [(2S,3R)-1-{(2S,5S)-2-[9-(4-cyclopropyl-2-{(2S,5S)-1-[N-(methoxycarbonyl)-O-methyl-L-threonyl]-5-methylpyrrolidin-2-yl}-1H-imidazol-5-yl)-1,11-dihydroisochromeno[4′,3′:6,7]naphtho[1,2-d]imidazol-2-yl]-5-methylpyrrolidin-1-yl}-3-methoxy-1-oxobutan-2-yl]carbamate] | – | – | 0.181 nM | 0.1 to 0.999 nM | 0.1 to 0.999 nM | 0.117 nM | 0.063 nM | < 0.1 nM | 0.013 nM | < 0.1 nM | 0.013 nM | < 0.1 nM | 0.14 nM | 0.1 to 0.999 nM | 0.022 nM | EC50 ([6]; Hepatitis C virus, read-out: 3a (t) (nM), genotype 3a NS5A chimeric replicon, transiently transfected (t)): 0.032 nM; EC50 ([6]; Hepatitis C virus, read-out: 3a (t), transiently transfected (t) into Huh-Lunet cells, activity range): < 0.1 nM
COC(=O)N[C@H](C(=O)N1[C@@H](C)CC[C@H]1c1ncc(-c2ccc3c(c2)COc2cc4c(ccc5nc([C@@H]6CC[C@H](C)N6C(=O)[C@@H](NC(=O)OC)[C@H](C)OC)[nH]c54)cc2-3)[nH]1)[C@H](C)OC [GE] | – | – | 0.508 nM | 0.1 to 0.999 nM | 0.1 to 0.999 nM | 0.772 nM | 0.104 nM | 0.1 to 0.999 nM | 0.043 nM | < 0.1 nM | 0.026 nM | < 0.1 nM | 0.445 nM | 0.1 to 0.999 nM | 0.062 nM | –
CC[C@H](C)[C@H](NC(=O)OC)C(=O)N1[C@@H](C)CC[C@H]1c1ncc(-c2ccc3c(c2)COc2cc4c(ccc5nc([C@@H]6CC[C@H](C)N6C(=O)[C@@H](NC(=O)OC)C(C)C)[nH]c54)cc2-3)[nH]1 [GL] | – | – | 0.364 nM | 0.1 to 0.999 nM | 0.1 to 0.999 nM | 0.577 nM | 0.024 nM | < 0.1 nM | 0.015 nM | < 0.1 nM | 0.022 nM | < 0.1 nM | 0.054 nM | < 0.1 nM | 0.021 nM | –
CC[C@H](C)[C@H](NC(=O)OC)C(=O)N1[C@@H](C)CC[C@H]1c1nc2ccc3cc4c(cc3c2[nH]1)OCc1cc(-c2cnc([C@@H]3CC[C@H](C)N3C(=O)[C@@H](NC(=O)OC)C(C)C)[nH]2)ccc1-4 [GM] | – | – | 0.222 nM | 0.1 to 0.999 nM | 0.1 to 0.999 nM | 0.658 nM | 0.016 nM | < 0.1 nM | 0.012 nM | < 0.1 nM | 0.015 nM | < 0.1 nM | 0.048 nM | < 0.1 nM | 0.016 nM | –
COC(=O)N[C@H](C(=O)N1[C@@H](C)CC[C@H]1c1nc2ccc3cc4c(cc3c2[nH]1)OCc1cc(-c2cnc([C@@H]3CC[C@H](C)N3C(=O)[C@@H](NC(=O)OC)[C@@H](C)OC(F)F)[nH]2)ccc1-4)[C@@H](C)OC [GN] | – | – | 0.033 nM | < 0.1 nM | 0.1 to 0.999 nM | 0.247 nM | 0.017 nM | < 0.1 nM | 0.013 nM | < 0.1 nM | 0.016 nM | < 0.1 nM | 0.072 nM | < 0.1 nM | 0.023 nM | –
CC[C@H]1CC[C@@H](c2ncc(-c3ccc4c(c3)COc3cc5c(ccc6nc([C@@H]7C[C@H](C)CN7C(=O)[C@@H](NC(=O)OC)[C@@H](C)OC)[nH]c65)cc3-4)[nH]2)N1C(=O)[C@@H](NC(=O)OC)C(C)C [GO] | – | – | 0.112 nM | 0.1 to 0.999 nM | 0.1 to 0.999 nM | 0.775 nM | 0.025 nM | < 0.1 nM | 0.021 nM | < 0.1 nM | 0.029 nM | < 0.1 nM | 1.28 nM | 1 to 44 nM | 0.028 nM | –
CC[C@H]1CC[C@@H](c2ncc(-c3ccc4c(c3)COc3cc5c(ccc6nc([C@@H]7CC[C@H](C)N7C(=O)[C@@H](NC(=O)OC)[C@@H](C)OC)[nH]c65)cc3-4)[nH]2)N1C(=O)[C@H](C)NC(=O)OC [GP] | – | – | 1.07 nM | 1 to 44 nM | 1 to 44 nM | 2.33 nM | 0.027 nM | < 0.1 nM | 0.018 nM | < 0.1 nM | 0.031 nM | < 0.1 nM | 0.571 nM | 0.1 to 0.999 nM | 0.027 nM | –
